Experimental data reported in patent US20140005163A1 (NOVARTIS AG, priority 2010, published 2014).
Values joined by “and” are separate entries in the source; they are usually repeats but may differ in a detail not shown here. Equal entries are not always repeated.

Key:
PI3K alpha = biological target: T1, PI3K alpha (Homo sapiens, UniProt P42336); experiment: PI3K alpha kinase assay (Kinase-Glo luminescence); type: biochemical
T1 construct: p85(iSH2) fusion partner (see partner chain) (N); His tag (C); made in house; host or cells: baculovirus; Tn5 (Trichoplusia ni) or TiniPro insect cells
Outline: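 IC50 is taken from a four-parameter logistic fit of 8-point dilutions, with Kinase-Glo luminescence reporting residual ATP. Reactions ran 60 min at room temperature in TRIS pH 7.5 buffer with MgCl2, NaCl, CHAPS and DTT. Final levels were 10 nM enzyme, 1 μM ATP and 10 μg/mL PI.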

PI3K delta = biological target: T2, PI3K delta (Homo sapiens, UniProt O00329); experiment: PI3K delta kinase assay (Kinase-Glo luminescence); type: biochemical
T2 construct: for the full-length p110-d subunit are generated and fused by overlapping PCR; p85(iSH2) fusion partner (see partner chain) (N); His tag (C); made in house; host or cells: baculovirus; Tn5 (Trichoplusia ni) or TiniPro insect cells
Outline: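 ATP depletion was measured by Kinase-Glo luminescence after a 60-minute room-temperature reaction containing 1 μM ATP, 10 μg/mL PI and 10 nM His-tagged p85(iSH2)-linker-p110δ (BV-1060). Buffer: Tris pH 7.5, 3 mM MgCl2, 50 mM NaCl, 0.05% CHAPS, 1 mM DTT. IC50 values came from four-parameter fits over eight concentrations.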

PI3K gamma = biological target: T3, PI3K gamma (Homo sapiens, UniProt P48736); experiment: PI3K gamma kinase assay (Kinase-Glo luminescence); type: biochemical
T3 construct: His tag (C); made in house; host or cells: baculovirus (pVL1393); Tn5 or TiniPro insect cells; construct from Roger Williams lab, MRC LMB
Outline: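 PI3Kγ (150 nM) reaction run 120 min at room temperature with phosphatidylinositol substrate (10 μg/mL) and ATP (1 μM) in Tris pH 7.5 buffer containing MgCl2, NaCl, CHAPS and DTT. Remaining ATP detected by Kinase-Glo luminescence; 8 concentrations per compound, IC50 from 4-parameter curve fitting.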

[1] = tested on: PKB Ser473 phosphorylation in Rat1-myr-HA-p110 alpha cells; experiment: Reverse protein array assay, PKB Ser473 phosphorylation in Rat1-myr-p110 alpha cells; type: cell-based; conditions: 0.5 h, pAkt Ser473, 30 minutes compound incubation, read-out: p-PKB IC50
Outline: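 After at least 20 h of culture, the p110 isoform-transfected Rat1 lines receive compound in an 8-step dilution series, keeping DMSO at 0.2%, for 30 minutes. Cells are then lysed and lysates arrayed on chips for fluorescence detection of Ser473-phosphorylated PKB.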

T2 sequence (O00329 with tags, fused parts or gaps limits assumed): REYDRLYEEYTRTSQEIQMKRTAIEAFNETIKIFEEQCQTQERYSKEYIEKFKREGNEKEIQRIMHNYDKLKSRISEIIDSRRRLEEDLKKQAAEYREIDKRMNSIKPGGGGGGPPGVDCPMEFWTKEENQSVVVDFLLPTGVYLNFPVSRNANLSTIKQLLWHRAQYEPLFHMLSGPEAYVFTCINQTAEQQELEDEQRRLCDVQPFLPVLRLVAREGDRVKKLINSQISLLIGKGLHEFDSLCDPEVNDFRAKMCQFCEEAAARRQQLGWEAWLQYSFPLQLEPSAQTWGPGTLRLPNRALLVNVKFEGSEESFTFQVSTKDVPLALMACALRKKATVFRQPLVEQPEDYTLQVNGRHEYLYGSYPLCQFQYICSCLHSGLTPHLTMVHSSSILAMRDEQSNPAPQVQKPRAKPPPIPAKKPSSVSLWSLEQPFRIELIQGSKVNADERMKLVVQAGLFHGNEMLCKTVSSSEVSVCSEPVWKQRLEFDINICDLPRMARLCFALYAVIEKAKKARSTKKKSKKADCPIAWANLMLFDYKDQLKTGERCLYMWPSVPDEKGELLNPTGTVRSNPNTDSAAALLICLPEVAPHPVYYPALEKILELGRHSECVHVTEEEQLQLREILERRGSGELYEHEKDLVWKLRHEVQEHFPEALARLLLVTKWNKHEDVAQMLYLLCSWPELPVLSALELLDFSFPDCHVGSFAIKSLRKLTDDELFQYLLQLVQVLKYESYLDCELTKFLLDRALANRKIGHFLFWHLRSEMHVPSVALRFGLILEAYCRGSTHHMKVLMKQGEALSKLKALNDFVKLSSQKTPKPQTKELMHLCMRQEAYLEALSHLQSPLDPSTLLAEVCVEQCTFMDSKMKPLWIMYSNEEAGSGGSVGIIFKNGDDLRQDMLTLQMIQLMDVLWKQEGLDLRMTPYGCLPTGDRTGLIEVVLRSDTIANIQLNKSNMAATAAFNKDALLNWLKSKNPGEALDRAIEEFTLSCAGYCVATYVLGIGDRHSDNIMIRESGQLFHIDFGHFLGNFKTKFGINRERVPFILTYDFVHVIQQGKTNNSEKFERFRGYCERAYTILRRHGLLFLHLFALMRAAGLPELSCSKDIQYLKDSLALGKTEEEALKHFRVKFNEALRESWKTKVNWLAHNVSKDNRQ
T1 sequence (P42336 with tags, fused parts or gaps limits assumed): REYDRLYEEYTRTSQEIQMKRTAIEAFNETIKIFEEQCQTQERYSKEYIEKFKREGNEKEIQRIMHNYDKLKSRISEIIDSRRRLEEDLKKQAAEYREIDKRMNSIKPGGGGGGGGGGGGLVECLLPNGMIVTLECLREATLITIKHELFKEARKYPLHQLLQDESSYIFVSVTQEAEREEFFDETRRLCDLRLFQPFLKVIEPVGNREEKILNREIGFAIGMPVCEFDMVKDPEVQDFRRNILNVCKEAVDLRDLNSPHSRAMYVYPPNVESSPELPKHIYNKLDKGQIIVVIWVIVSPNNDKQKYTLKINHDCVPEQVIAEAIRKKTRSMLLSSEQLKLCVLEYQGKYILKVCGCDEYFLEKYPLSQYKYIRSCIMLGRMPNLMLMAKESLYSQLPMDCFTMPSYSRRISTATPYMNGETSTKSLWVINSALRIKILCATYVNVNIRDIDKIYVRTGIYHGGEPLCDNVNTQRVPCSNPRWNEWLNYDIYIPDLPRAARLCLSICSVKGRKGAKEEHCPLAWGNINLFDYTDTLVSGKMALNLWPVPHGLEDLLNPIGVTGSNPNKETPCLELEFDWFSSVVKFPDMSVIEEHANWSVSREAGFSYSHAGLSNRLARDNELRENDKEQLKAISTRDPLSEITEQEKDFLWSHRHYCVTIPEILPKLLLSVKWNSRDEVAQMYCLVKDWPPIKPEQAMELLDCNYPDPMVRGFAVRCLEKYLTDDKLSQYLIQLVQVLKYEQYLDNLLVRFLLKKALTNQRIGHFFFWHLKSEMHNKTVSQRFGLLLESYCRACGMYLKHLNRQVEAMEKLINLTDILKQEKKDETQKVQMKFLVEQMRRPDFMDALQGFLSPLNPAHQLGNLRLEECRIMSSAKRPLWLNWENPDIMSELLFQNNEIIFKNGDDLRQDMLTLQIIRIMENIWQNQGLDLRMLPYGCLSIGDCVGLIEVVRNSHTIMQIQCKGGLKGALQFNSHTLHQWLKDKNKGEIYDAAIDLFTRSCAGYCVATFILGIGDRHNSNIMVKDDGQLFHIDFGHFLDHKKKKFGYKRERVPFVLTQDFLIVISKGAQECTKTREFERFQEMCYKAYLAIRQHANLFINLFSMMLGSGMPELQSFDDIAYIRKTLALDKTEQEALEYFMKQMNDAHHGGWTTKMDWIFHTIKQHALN
T3 sequence (P48736 144-1102 limits assumed): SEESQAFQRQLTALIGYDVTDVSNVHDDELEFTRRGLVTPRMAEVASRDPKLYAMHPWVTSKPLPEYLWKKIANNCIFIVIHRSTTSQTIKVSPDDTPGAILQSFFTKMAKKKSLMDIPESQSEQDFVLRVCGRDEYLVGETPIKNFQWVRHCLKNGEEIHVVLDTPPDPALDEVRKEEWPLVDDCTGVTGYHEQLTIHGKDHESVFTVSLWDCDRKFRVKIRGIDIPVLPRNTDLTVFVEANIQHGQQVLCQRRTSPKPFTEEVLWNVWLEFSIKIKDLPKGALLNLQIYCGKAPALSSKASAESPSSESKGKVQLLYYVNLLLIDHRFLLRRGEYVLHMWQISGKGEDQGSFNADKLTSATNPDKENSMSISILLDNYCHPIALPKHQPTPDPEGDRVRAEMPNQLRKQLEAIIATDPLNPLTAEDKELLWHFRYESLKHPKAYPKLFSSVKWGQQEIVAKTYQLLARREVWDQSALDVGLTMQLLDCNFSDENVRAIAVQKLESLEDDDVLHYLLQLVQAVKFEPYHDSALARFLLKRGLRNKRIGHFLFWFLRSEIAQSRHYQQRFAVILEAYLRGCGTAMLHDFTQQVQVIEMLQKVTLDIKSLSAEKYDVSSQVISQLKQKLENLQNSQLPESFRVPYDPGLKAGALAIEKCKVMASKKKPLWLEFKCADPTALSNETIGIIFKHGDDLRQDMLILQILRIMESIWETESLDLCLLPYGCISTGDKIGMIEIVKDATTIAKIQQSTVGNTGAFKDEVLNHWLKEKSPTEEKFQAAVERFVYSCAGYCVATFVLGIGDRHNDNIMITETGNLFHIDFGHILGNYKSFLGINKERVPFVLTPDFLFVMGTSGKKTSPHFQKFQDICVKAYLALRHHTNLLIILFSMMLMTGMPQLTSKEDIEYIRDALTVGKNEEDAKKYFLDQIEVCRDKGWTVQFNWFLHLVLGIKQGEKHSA

Compound | IC50 (PI3K alpha) [nM] | IC50 (PI3K delta) [nM] | IC50 (PI3K gamma) | IC50 [1] [nM]
COc1ccc(-c2ccc3ncc4c(c3c2)n(-c2c(C)nn(C)c2C)c(=O)n4C)cn1 [Example 2.4, 8-(6-Methoxy-pyridin-3-yl)-3-methyl-1-(1,3,5-trimethyl-1H-pyrazol-4-yl)-1,3-dihydro-imidazo[4,5-c]quinolin-2-one] | 65 | 33 | 199 nM | 65
CCOc1ccc(-c2ccc3ncc4c(c3c2)n(-c2cn(CC(=O)N3CCOCC3)nc2C)c(=O)n4C)cn1 [Example 3.10, 8-(6-Ethoxy-pyridin-3-yl)-3-methyl-1-[3-methyl-1-(2-morpholin-4-yl-2-oxo-ethyl)-1H-pyrazol-4-yl]-1,3-dihydro-imidazo[4,5-c]quinolin-2-one] | 91 | 431 | 867 nM | 59
CCn1cc(-n2c(=O)n(C)c3cnc4ccc(-c5ccc(N(C)C)nc5)cc4c32)c(C)n1 [Example 4.2, 8-(6-Dimethylamino-pyridin-3-yl)-1-(1-ethyl-3-methyl-1H-pyrazol-4-yl)-3-methyl-1,3-dihydro-imidazo[4,5-c]quinolin-2-one] | 15 | 6 | 242 nM | 14
Cc1nn(C)c(C)c1-n1c(=O)n(C)c2cnc3ccc(-c4ccc(N(C)C)nc4)cc3c21 [Example 4.3, 8-(6-Dimethylamino-pyridin-3-yl)-3-methyl-1-(1,3,5-trimethyl-1H-pyrazol-4-yl)-1,3-dihydro-imidazo[4,5-c]quinolin-2-one] | 99 | 98 | 142 nM | 68
Cc1nn(C(C)C)cc1-n1c(=O)n(C)c2cnc3ccc(-c4ccc(N5CCC5)nc4)cc3c21 [Example 5.2, 8-(6-Azetidin-1-yl-pyridin-3-yl)-1-(1-isopropyl-3-methyl-1H-pyrazol-4-yl)-3-methyl-1,3-dihydro-imidazo[4,5-c]quinolin-2-one] | 34 | 53 | 227 nM | 14
Cc1ccc(-c2ccc3ncc4c(c3c2)n(-c2cn(C)nc2C)c(=O)n4C)cn1 [Example 7.2, 1-(1,3-Dimethyl-1H-pyrazol-4-yl)-3-methyl-8-(6-methyl-pyridin-3-yl)-1,3-dihydro-imidazo[4,5-c]quinolin-2-one] | 14 | 13 | 191 nM | 14
CNC(=O)c1ccc(-c2ccc3ncc4c(c3c2)n(-c2cn(C)nc2C)c(=O)n4C)cn1 [Example 15.1, 5-[1-(1,3-Dimethyl-1H-pyrazol-4-yl)-3-methyl-2-oxo-2,3-dihydro-1H-imidazo[4,5-c]quinolin-8-yl]-pyridine-2-carboxylic acid methylamide] | 16 | 257 | 528 nM | 25
Cc1nn(C(C)C)cc1-n1c(=O)n(C)c2cnc3ccc(-c4ccc(CO)nc4)cc3c21 [Example 16.3, 8-(6-hydroxymethyl-pyridin-3-yl)-1-(1-isopropyl-3-methyl-1H-pyrazol-4-yl)-3-methyl-1,3-dihydro-imidazo[4,5-c]quinolin-2-one] | 59 | 27 | 408 nM and 359 nM | 67
CCOc1cc(-c2ccc3ncc4c(c3c2)n(-c2cn(C)nc2C)c(=O)n4C)cnc1CO [Example 243, 1-(1,3-Dimethyl-1H-pyrazol-4-yl)-8-(5-ethoxy-6-hydroxymethyl-pyridin-3-yl)-3-methyl-1,3-dihydro-imidazo[4,5-c]quinolin-2-one] | 11 | 7 | – | 36
COCCOc1cc(-c2ccc3ncc4c(c3c2)n(-c2cn(C)nc2C)c(=O)n4C)cnc1CO [Example 244, 1-(1,3-Dimethyl-1H-pyrazol-4-yl)-8-[6-hydroxymethyl-5-(2-methoxy-ethoxy)-pyridin-3-yl]-3-methyl-1,3-dihydro-imidazo[4,5-c]quinolin-2-one] | 30 | 17 | – | 115
